The source of these data is ChEMBL document CHEMBL4706747, “Discovery of 5-Nitro-6-thiocyanatopyrimidines as Inhibitors of Cryptococcus neoformans and Cryptococcus gattii” (ACS Med Chem Lett, 2021).

≈ marks a conversion by molar mass, not a printed value. Where “and” joins values, the source holds several entries; their conditions need not be identical. Equal entries are not always repeated.

In data set [1] the test system is Cryptococcus neoformans. Description: Antifungal activity against Cryptococcus neoformans assessed as fungal growth inhibition after 72 hrs by broth microdilution method. In kind it is functional.
Data set [2] concerns Cryptococcus neoformans. Description: Synergistic antifungal activity against Cryptococcus neoformans KN99alpha assessed as fractional inhibitory concentration index in presence of amphotericin B by checkerboard assay. It counts as functional.
Data set [3] relates to Cryptococcus neoformans. Description: Antifungal activity against fluconazole-resistant Cryptococcus neoformans DUMC-158.03 assessed as fungal growth inhibition after 48 hrs by limiting dilution method. In kind it is functional.
Data set [4] in a line: Antifungal activity against Cryptococcus gattii RSA-3615 assessed as fungal growth inhibition after 48 hrs by limiting dilution method. It counts as functional, Cryptococcus gattii VGI.
Data set [5] in a line: Selectivity index, ratio of CC50 for human HepDE19 cells to MIC80 for Cryptococcus neoformans KN99alpha. In kind it is toxicity. Conditions: read-out: Selectivity Index.
Data set [6] deals with Cryptococcus neoformans. Description: Antifungal activity against Cryptococcus neoformans KN99alpha assessed as fungal growth inhibition after 48 hrs by limiting dilution method. In kind it is functional.
In data set [7] the test system is Cryptococcus neoformans. The data set can be described thus: Synergistic antifungal activity against Cryptococcus neoformans KN99alpha assessed as fractional inhibitory concentration index in presence of fluconazole by checkerboard assay. It counts as functional.
A short description of data set [8]: Cytotoxicity against human HepDE19 cells incubated for 72 hrs by MTS assay. In kind it is cell-based.

Regarding `O[C@@](Cn1cnnn1)(c1ccc(F)cc1F)C(F)(F)c1ccc(-c2ccc(OC(F)(F)F)cc2)cn1`, in the data set on Cryptococcus neoformans [1], the MIC50 amounted to 0.015 µg/mL (≈ 0.0292 µM). The MIC in the data set with Cryptococcus neoformans [1] (read-out: MIC100) was determined as 0.06 µg/mL (≈ 0.117 µM).

Regarding `Cc1nc(NC2CC2)c([N+](=O)[O-])c(SC#N)n1`, the “fractional inhibitory concentration index (FICI)” value with Cryptococcus neoformans [2] is reported as 1.25; with Cryptococcus neoformans [7] it was 1.5. Besides, the MIC80 with Cryptococcus neoformans [3] was 1.17 µM and 0.29 µg/mL; in data set [4] it was 0.58 µM and 0.14 µg/mL; with Cryptococcus neoformans [6], 0.6 µM and 0.15 µg/mL. The selectivity ratio in data set [5] is 16. For the same molecule, in data set [8], the CC50 at 72 h is 12.7 µM and 3.19 µg/mL.

For `CC(C)Nc1nc(C(F)(F)F)nc(SC#N)c1[N+](=O)[O-]`, the MIC80 with Cryptococcus neoformans [3] was 18.8 µM and 5.76 µg/mL; in data set [4] it was > 25 µM and > 7.68 µg/mL; with Cryptococcus neoformans [6] it was 12.2 µM and 4.4 µg/mL. The CC50 at 72 h in data set [8] was 42.8 µM and 13.2 µg/mL.
